{
  "source": "ChEMBL document CHEMBL1154580",
  "about": "“Identification and total synthesis of a novel dimethylated fatty acid from the Caribbean sponge Calyx podatypa” (2000)",
  "system": "Streptococcus mutans",
  "test": "Antimicrobial activity against Streptococcus mutans MT509",
  "assay_type": "functional",
  "data": [
    {"smiles": "CCC(C)CCCCCCCCCCC(=O)O", "note": "(configuration not stated)", "values": [
      {"measurement": "MIC", "value": 3.13, "unit": "µg/mL"}
    ]},
    {"smiles": "CC(C)CCCCCCCCCCCC(=O)O", "values": [
      {"measurement": "MIC", "value": 3.13, "unit": "µg/mL"}
    ]}
  ]
}
